Assay results taken from PMC2820364 (The Biochemical journal, 2008).

Assays:
p110β (E858H) = p110β (E858H) (Homo sapiens, UniProt P42338, E858H); experiment: PI3K lipid kinase inhibition assay, p110β E858H mutant; format: biochemical
p110α (Q859D) = p110α (Q859D) (Homo sapiens, UniProt P42336, Q859D); experiment: PI3K lipid kinase inhibition assay, p110α Q859D mutant; format: biochemical; conditions: for Selectivity ratio α/β Gln↔Asp: IC50 ratio p110α-(Q859D) / p110β-(D862Q)
p110α WT = p110α WT (Homo sapiens, UniProt P42336); experiment: PI3K lipid kinase inhibition assay, wild-type p110α; format: biochemical; conditions: IC50 ratio p110α WT / p110β WT
Chain of p110α WT (P42336 whole entry): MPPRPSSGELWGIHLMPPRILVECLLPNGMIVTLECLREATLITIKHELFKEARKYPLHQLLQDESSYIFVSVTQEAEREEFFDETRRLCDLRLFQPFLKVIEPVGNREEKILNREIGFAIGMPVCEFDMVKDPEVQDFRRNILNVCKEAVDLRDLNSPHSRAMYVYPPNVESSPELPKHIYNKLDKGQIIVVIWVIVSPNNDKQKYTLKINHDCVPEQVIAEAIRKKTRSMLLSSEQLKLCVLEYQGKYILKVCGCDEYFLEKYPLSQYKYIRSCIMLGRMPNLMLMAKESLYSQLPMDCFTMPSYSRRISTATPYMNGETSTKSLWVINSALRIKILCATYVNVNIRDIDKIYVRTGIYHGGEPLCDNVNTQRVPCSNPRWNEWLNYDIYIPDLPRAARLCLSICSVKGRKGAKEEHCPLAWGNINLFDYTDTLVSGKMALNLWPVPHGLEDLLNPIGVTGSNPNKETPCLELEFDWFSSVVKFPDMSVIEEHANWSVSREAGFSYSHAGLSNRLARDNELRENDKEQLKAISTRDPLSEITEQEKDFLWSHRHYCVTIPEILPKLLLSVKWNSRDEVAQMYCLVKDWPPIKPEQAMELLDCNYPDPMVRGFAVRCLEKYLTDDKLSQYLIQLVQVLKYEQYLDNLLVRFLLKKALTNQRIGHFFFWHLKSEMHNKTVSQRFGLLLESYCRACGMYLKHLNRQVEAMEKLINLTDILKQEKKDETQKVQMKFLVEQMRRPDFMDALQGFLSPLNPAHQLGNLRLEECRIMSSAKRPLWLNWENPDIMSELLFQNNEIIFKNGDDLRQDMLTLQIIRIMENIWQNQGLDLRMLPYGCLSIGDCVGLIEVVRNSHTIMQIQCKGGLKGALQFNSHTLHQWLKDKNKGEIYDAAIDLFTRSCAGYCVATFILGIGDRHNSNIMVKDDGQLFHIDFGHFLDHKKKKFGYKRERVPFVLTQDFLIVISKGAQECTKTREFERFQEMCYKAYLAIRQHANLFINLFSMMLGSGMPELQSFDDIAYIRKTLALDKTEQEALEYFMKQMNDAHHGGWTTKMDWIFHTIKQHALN
Chain of p110α WT (P27986 whole entry partner): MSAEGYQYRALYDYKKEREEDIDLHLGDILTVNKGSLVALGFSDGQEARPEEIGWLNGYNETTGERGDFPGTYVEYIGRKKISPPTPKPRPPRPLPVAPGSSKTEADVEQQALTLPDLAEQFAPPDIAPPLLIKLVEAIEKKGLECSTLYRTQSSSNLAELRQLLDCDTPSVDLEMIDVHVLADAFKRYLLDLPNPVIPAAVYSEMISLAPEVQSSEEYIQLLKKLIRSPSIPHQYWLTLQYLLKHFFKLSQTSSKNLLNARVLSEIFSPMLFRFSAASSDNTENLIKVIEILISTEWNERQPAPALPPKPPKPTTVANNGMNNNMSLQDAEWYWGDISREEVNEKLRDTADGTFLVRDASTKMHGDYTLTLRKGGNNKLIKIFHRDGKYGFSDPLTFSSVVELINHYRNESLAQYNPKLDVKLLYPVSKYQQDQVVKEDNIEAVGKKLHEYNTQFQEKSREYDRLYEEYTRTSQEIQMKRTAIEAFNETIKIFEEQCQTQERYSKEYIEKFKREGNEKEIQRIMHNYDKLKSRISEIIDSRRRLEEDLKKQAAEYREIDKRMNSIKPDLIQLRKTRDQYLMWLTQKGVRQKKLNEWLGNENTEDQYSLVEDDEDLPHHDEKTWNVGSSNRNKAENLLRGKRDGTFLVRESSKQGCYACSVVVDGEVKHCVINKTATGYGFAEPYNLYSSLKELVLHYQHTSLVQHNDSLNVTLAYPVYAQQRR

p110α (H855E) = p110α (H855E) (Homo sapiens, UniProt P42336, H855E); experiment: PI3K lipid kinase inhibition assay, p110α H855E mutant; format: biochemical; conditions: for Selectivity ratio α/β His↔Glu: IC50 ratio p110α-(H855E) / p110β-(E858H); for loss of potency at H857E-p110α relative to wild type: mutant printed as H857E
Chain of p110α (H855E) (P42336 whole entry H855E, species assumed): as the sequence (P42336 whole entry) above, with H855E counted along it
Chain of p110α (H855E) (P27986 whole entry partner, species assumed): as the sequence (P27986 whole entry partner) above

p110β (D862Q) = p110β (D862Q) (Homo sapiens, UniProt P42338, D862Q); experiment: PI3K lipid kinase inhibition assay, p110β D862Q mutant; format: biochemical
Chain of p110β (D862Q) (P42338 whole entry D862Q, species assumed): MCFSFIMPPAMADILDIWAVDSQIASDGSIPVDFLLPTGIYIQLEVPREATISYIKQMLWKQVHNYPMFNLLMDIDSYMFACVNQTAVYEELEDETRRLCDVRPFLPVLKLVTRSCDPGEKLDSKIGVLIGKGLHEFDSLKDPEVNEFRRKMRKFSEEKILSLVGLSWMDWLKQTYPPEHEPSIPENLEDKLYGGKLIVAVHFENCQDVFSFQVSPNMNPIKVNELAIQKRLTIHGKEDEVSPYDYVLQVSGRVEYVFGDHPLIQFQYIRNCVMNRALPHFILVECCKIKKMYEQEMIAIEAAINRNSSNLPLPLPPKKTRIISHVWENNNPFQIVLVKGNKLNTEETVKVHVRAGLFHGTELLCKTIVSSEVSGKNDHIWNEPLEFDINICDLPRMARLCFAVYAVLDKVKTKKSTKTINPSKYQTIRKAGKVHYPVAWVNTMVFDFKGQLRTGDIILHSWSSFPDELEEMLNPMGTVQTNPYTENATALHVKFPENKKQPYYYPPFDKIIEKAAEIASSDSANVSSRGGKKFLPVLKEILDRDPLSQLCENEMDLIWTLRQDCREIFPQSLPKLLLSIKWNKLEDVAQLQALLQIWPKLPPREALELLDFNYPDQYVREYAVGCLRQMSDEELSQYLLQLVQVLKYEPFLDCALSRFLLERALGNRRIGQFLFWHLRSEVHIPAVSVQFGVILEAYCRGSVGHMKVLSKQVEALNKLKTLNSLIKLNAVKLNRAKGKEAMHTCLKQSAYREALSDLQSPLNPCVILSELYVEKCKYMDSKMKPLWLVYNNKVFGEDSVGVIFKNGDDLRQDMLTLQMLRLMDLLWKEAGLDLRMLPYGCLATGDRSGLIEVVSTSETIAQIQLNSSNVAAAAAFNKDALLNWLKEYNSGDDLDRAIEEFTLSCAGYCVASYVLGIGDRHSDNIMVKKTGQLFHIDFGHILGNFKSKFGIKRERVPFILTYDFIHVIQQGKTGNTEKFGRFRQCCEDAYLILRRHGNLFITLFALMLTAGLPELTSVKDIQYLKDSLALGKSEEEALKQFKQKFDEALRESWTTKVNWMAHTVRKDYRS
Chain of p110β (D862Q) (P27986 whole entry partner, species assumed): as the sequence (P27986 whole entry partner) above

p110β WT = p110β WT (Homo sapiens, UniProt P42338); experiment: PI3K lipid kinase inhibition assay, wild-type p110β; format: biochemical; conditions: for selectivity for p110β relative to p110α (wild type): wild type enzymes
Chain of p110β WT (P42338 whole entry): as the sequence (P42338 whole entry D862Q, species assumed) above, with Q862D counted along it
Chain of p110β WT (P27986 whole entry partner): as the sequence (P27986 whole entry partner) above

p110β = conditions: read-out: IC50 against p110β; 10μM ATP; ref Knight et al. 2006; cited from earlier work

Chain of p110β (E858H) (P42338 whole entry E858H, species assumed): as the sequence (P42338 whole entry D862Q, species assumed) above, with E858H, Q862D counted along it
Chain of p110β (E858H) (P27986 whole entry partner, species assumed): as the sequence (P27986 whole entry partner) above
Chain of p110α (Q859D) (P42336 whole entry Q859D, species assumed): as the sequence (P42336 whole entry) above, with Q859D counted along it
Chain of p110α (Q859D) (P27986 whole entry partner, species assumed): as the sequence (P27986 whole entry partner) above

effect of p110β E858H mutation on inhibition (in words) (p110β (E858H); compared with wild type p110β)	loss of potency at Q859D-p110α relative to wild type (p110α (Q859D))	Selectivity ratio α/β Gln↔Asp (p110α (Q859D))	Selectivity ratio α/β (wt) (p110α WT)	Selectivity ratio α/β His↔Glu (p110α (H855E))	loss of potency at H857E-p110α relative to wild type (p110α (H855E))	effect of p110β D862Q mutation on inhibition (in words) (p110β (D862Q); compared with wild type p110β)	increase in potency at p110β-E858H relative to wild type (p110β (E858H))	increase in potency at p110β-D862Q relative to wild type (p110β (D862Q))	Molecule	selectivity for p110β relative to p110α (wild type) (p110β WT)	reduction in potency at p110β-E858H relative to wild type (p110β (E858H))	IC50 (p110β) [nM]	reduction in potency at p110β-D862Q relative to wild type (p110β (D862Q))	difference between literature IC50 and IC50 of this study at p110β (p110β WT; 0.12μM (Knight et al. 2006) v. 7nM) [fold]
indistinguishable from the wild type	3 fold	12.65	4.30	17.3	3 fold	indistinguishable from the wild type	–	–	O=c1cc(N2CCOCC2)oc2c(OCc3ccccc3)cccc12 [TGX102]	approximately 4 fold	–	–	–	–
–	5-6 fold	4.59	0.34	3.56	5-6 fold	–	approximately 2 fold	approximately 2 fold	O=c1cc(N2CCOCC2)oc2c(OCc3cccnc3)cccc12 [TGX132]	–	–	–	–	–

Molecule	effect of p110β E858H mutation on inhibition (in words) (p110β (E858H); compared with wild type p110β)	loss of potency at Q859D-p110α relative to wild type (p110α (Q859D))	Selectivity ratio α/β Gln↔Asp (p110α (Q859D))	Selectivity ratio α/β (wt) (p110α WT)	Selectivity ratio α/β His↔Glu (p110α (H855E))	loss of potency at H857E-p110α relative to wild type (p110α (H855E))	effect of p110β D862Q mutation on inhibition (in words) (p110β (D862Q); compared with wild type p110β)	increase in potency at p110β-E858H relative to wild type (p110β (E858H))	increase in potency at p110β-D862Q relative to wild type (p110β (D862Q))	selectivity for p110β relative to p110α (wild type) (p110β WT)	reduction in potency at p110β-E858H relative to wild type (p110β (E858H))	IC50 (p110β) [nM]	reduction in potency at p110β-D862Q relative to wild type (p110β (D862Q))	difference between literature IC50 and IC50 of this study at p110β (p110β WT; 0.12μM (Knight et al. 2006) v. 7nM) [fold]
TGX286	–	–	126.2	142.0	106.4	–	–	–	–	over 140 fold	approximately 2 fold	120	approximately 2 fold	17
